# Reference: patent publication US10988478B1, “Pyrazolo[1,5a]pyrimidine derivatives as IRAK4 modulators” (Genentech, Inc., priority 2015, dated 2021)
# Target: human IRAK4 (Homo sapiens (Human), UniProt Q9NWZ3)
# Test: IRAK4 kinase inhibition, Transcreener fluorescence polarization ADP assay
# Assay type: biochemical
# Settings: recombinant full-length His6-IRAK4; 125 uM ATP; 90 min; Ki computed using ATP Km 642 uM
# Method: Compounds were assayed for inhibition of human IRAK4 and IRAK1 catalytic activity using recombinant enzyme produced from insect cells. Full-length IRAK4 protein, carrying an N-terminal His6-Tag, was obtained from Life Technologies (Carlsbad, Calif., USA). The IRAK1 construct was produced internally and was comprised of IRAK1 residues Arg194 to Ser712, preceded by an NH2-terminal His6 tag and the coding sequence for glutathione-S-transferase.
# Sequence of human IRAK4 (Q9NWZ3 whole entry): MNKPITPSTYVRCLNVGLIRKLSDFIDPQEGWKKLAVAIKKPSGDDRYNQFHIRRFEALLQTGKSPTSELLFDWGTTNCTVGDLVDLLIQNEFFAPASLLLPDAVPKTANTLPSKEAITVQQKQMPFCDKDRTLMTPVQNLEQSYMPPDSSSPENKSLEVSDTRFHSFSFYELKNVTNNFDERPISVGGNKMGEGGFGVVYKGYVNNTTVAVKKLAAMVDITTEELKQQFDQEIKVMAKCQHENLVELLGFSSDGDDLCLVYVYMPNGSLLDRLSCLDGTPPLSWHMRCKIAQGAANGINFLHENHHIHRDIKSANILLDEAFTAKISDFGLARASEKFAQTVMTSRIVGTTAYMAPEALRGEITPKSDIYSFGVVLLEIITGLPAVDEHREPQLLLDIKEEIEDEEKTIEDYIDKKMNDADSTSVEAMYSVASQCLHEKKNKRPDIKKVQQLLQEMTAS
row,Ki,SMILES
1,18 nM,"CC(C)(O)C(F)C1(C)Cc2cc(NC(=O)c3cnn4cccnc34)c(N3CCOCC3)cc2O1 (stereo not drawn) [Example 392, N-[2-(1-fluoro-2-hydroxy-2-methyl-propyl)-2-methyl-6-morpholino-3H-benzofuran-5-yl]pyrazolo[1,5-a]pyrimidine-3-carboxamide]"
2,24 nM,"O=C(Nc1cc2c(cc1N1CCOCC1)OC1(CCNC1)C2)c1cnn2cccnc12 (stereo not drawn) [Example 393, N-(6-Morpholinospiro[3H-benzofuran-2,3′-pyrrolidine]-5-yl)pyrazolo[1,5-a]pyrimidine-3-carboxamide]"
3,75 nM,"O=C(Nc1cc2c(cc1N1CCOCC1)OC(CO)(CO)C2)c1cnn2cccnc12 [Example 394, N-(2,2-bis(hydroxymethyl)-6-morpholino-2,3-dihydrobenzofuran-5-yl)pyrazolo[1,5-a]pyrimidine-3-carboxamide]"
4,340 nM,"CNC(=O)C1CC1c1cc2c(cc1NC(=O)c1cnn3cccnc13)CC(C)(C)O2 (stereo not drawn) [Example 395, N-(2,2-dimethyl-6-(2-(methylcarbamoyl)cyclopropyl)-2,3-dihydrobenzofuran-5-yl)pyrazolo[1,5-a]pyrimidine-3-carboxamide]"
5,110 nM,"CC1(C)Cc2cc(NC(=O)c3cnn4cccnc34)c([C@@H]3C[C@H]3C(N)=O)cc2O1 [Example 396, N-(6-((1R,2R)-2-Carbamoylcyclopropyl)-2,2-dimethyl-2,3-dihydrobenzofuran-5-yl)pyrazolo[1,5-a]pyrimidine-3-carboxamide]"
6,88 nM,"CC1(C)Cc2cc(NC(=O)c3cnn4cccnc34)c([C@@H]3C[C@H]3CO)cc2O1 [Example 397, N-(6-((1R,2R)-2-(Hydroxymethyl)cyclopropyl)-2,2-dimethyl-2,3-dihydrobenzofuran-5-yl)pyrazolo[1,5-a]pyrimidine-3-carboxamide]"
7,7 nM,"CNc1cnc2c(C(=O)Nc3cc4c(cc3N3CCOCC3)C(=O)N(C(C)C)C4)cnn2c1 [Example 398, N-(2-Isopropyl-6-morpholino-1-oxoisoindolin-5-yl)-6-(methylamino)pyrazolo[1,5-a]-pyrimidine-3-carboxamide]"
8,5 nM,"O=C(Nc1cc2c(cc1N1CCOCC1)C(=O)N([C@H]1CCOC[C@@H]1F)C2)c1cnn2cccnc12 [Example 399, N-[2-[(3R,4S)-3-Fluorotetrahydropyran-4-yl]-6-morpholino-1-oxo-isoindolin-5-yl]pyrazolo[1,5-a]pyrimidine-3-carboxamide]"
9,1 nM,"O=C(Nc1cc2c(cc1N1CCOCC1)C(=O)N([C@@H]1CCOC[C@H]1F)C2)c1cnn2cccnc12 [Example 400, N-[2-[(3S,4R)-3-fluorotetrahydropyran-4-yl]-6-morpholino-1-oxo-isoindolin-5-yl]pyrazolo[1,5-a]pyrimidine-3-carboxamide]"
10,97 nM,"CN1CCc2cc(NC(=O)c3cnn4cccnc34)c(N3CCOCC3)cc2C1=O [Example 401, N-(2-Methyl-7-morpholino-1-oxo-1,2,3,4-tetrahydroisoquinolin-6-yl)pyrazolo[1,5-a]pyrimidine-3-carboxamide]"
11,19 nM,"O=C(Nc1cc2c(cc1N1CCOCC1)S(=O)(=O)CCN2)c1cnn2cccnc12 [Example 402, N-(7-Morpholino-1,1-dioxido-3,4-dihydro-2H-benzo[b][1,4]thiazin-6-yl)pyrazolo[1,5-a]pyrimidine-3-carboxamide]"
12,680 nM,"CC1(C)CS(=O)(=O)c2cc(N3CCOCC3)c(NC(=O)c3cnn4cccnc34)cc2N1 [Example 403, N-(3,3-Dimethyl-7-morpholino-1,1-dioxido-3,4-dihydro-2H-benzo[b][1,4]thiazin-6-yl)pyrazolo[1,5-a]pyrimidine-3-carboxamide]"
13,64 nM,"Cn1cc(-c2cc3c(cc2NC(=O)c2cnn4cccnc24)CC(C)(C)O3)cn1 [Example 404, N-(2,2-Dimethyl-6-(1-methyl-1H-pyrazol-4-yl)-2,3-dihydrobenzofuran-5-yl)pyrazolo[1,5-a]pyrimidine-3-carboxamide]"
14,520 nM,"CC1(C)Cc2cc(NC(=O)c3cnn4cccnc34)c(-c3cncc(C#N)c3)cc2O1 [Example 405, N-(6-(5-Cyanopyridin-3-yl)-2,2-dimethyl-2,3-dihydrobenzofuran-5-yl)pyrazolo[1,5-a]pyrimidine-3-carboxamide]"
15,150 nM,"Cn1ccnc1-c1cc2c(cc1NC(=O)c1cnn3cccnc13)CC(C)(C)O2 [Example 406, N-[2,2-Dimethyl-6-(1-methylimidazol-2-yl)-3H-benzofuran-5-yl]pyrazolo[1,5-a]pyrimidine-3-carboxamide]"
16,6 nM,"CC1(C)Cc2cc(NC(=O)c3cnn4cc(C#N)cnc34)c(N3CCOCC3)cc2O1 [Example 407, 6-Cyano-N-(2,2-dimethyl-6-morpholino-2,3-dihydrobenzofuran-5-yl)pyrazolo[1,5-a]pyrimidine-3-carboxamide]"
17,46 nM,"CC1(C)Cc2cc(NC(=O)c3cnn4cccnc34)c(N3CC[N+](C)(CC(N)=O)CC3)cc2O1 [Example 408, 1-(2-Amino-2-oxoethyl)-4-(2,2-dimethyl-5-(pyrazolo[1,5-a]pyrimidine-3-carboxamido)-2,3-dihydrobenzofuran-6-yl)-1-methylpiperazin-1-ium]"
18,6.7 nM,"C[C@]1(CO)Cc2cc(NC(=O)c3cnn4cccnc34)c(N3CCC([C@@](C)(O)C(F)(F)F)CC3)cc2O1 [Example 409, N—((R)-2-(hydroxymethyl)-2-methyl-6-(4-((R)-1,1,1-trifluoro-2-hydroxypropan-2-yl)piperidin-1-yl)-2,3-dihydrobenzofuran-5-yl)pyrazolo[1,5-a]pyrimidine-3-carboxamide]"
19,6.2 nM,"C[C@]1(CO)Cc2cc(NC(=O)c3cnn4cccnc34)c(N3CCC([C@](C)(O)C(F)(F)F)CC3)cc2O1 [Example 410, N—((R)-2-(hydroxymethyl)-2-methyl-6-(4-((S)-1,1,1-trifluoro-2-hydroxypropan-2-yl)piperidin-1-yl)-2,3-dihydrobenzofuran-5-yl)pyrazolo[1,5-a]pyrimidine-3-carboxamide]"
20,7.6 nM,"C[C@@]1(CO)Cc2cc(NC(=O)c3cnn4cccnc34)c(N3CCC([C@@](C)(O)C(F)(F)F)CC3)cc2O1 [Example 411, N—((S)-2-(hydroxymethyl)-2-methyl-6-(4-((R)-1,1,1-trifluoro-2-hydroxypropan-2-yl)piperidin-1-yl)-2,3-dihydrobenzofuran-5-yl)pyrazolo[1,5-a]pyrimidine-3-carboxamide]"
21,5.9 nM,"C[C@@]1(CO)Cc2cc(NC(=O)c3cnn4cccnc34)c(N3CCC([C@](C)(O)C(F)(F)F)CC3)cc2O1 [Example 412, N—((S)-2-(hydroxymethyl)-2-methyl-6-(4-((S)-1,1,1-trifluoro-2-hydroxypropan-2-yl)piperidin-1-yl)-2,3-dihydrobenzofuran-5-yl)pyrazolo[1,5-a]pyrimidine-3-carboxamide]"
22,32 nM,"C[C@]1(CO)Cc2cc(NC(=O)c3cnn4cccnc34)c(N3C[C@@H]4[C@H](C3)[C@H]4C(N)=O)cc2O1 [Example 413, N-((R)-6-((1R,5S,6R)-6-carbamoyl-3-azabicyclo[3.1.0]hexan-3-yl)-2-(hydroxymethyl)-2-methyl-2,3-dihydrobenzofuran-5-yl)pyrazolo[1,5-a]pyrimidine-3-carboxamide]"
23,12 nM,"C[C@@]1(CO)Cc2cc(NC(=O)c3cnn4cccnc34)c(N3C[C@@H]4[C@H](C3)[C@H]4C(N)=O)cc2O1 [Example 414, N-((S)-6-((1R,5S,6S)-6-carbamoyl-3-azabicyclo[3.1.0]hexan-3-yl)-2-(hydroxymethyl)-2-methyl-2,3-dihydrobenzofuran-5-yl)pyrazolo[1,5-a]pyrimidine-3-carboxamide]"
24,4.8 nM,"C[C@@]1(CO)Cc2cc(NC(=O)c3cnn4cccnc34)c(N3CCC4(CC3)CNC(=O)C4)cc2O1 [Example 418, (S)-N-(2-(hydroxymethyl)-2-methyl-6-(3-oxo-2,8-diazaspiro[4.5]decan-8-yl)-2,3-dihydrobenzofuran-5-yl)pyrazolo[1,5-a]pyrimidine-3-carboxamide]"
25,14 nM,"C[C@@]1(CO)Cc2cc(NC(=O)c3cnn4cccnc34)c(N3Cc4cccnc4C3)cc2O1 [Example 420, (S)-N-(6-(5,7-dihydro-6H-pyrrolo[3,4-b]pyridin-6-yl)-2-(hydroxymethyl)-2-methyl-2,3-dihydrobenzofuran-5-yl)pyrazolo[1,5-a]pyrimidine-3-carboxamide]"
26,100 nM,"C[C@@]1(O)COc2cc(N3CCC([C@](C)(O)C(F)(F)F)CC3)c(NC(=O)c3cnn4cccnc34)cc2C1 [Example 421, N—((S)-3-hydroxy-3-methyl-7-(4-((S)-1,1,1-trifluoro-2-hydroxypropan-2-yl)piperidin-1-yl)chroman-6-yl)pyrazolo[1,5-a]pyrimidine-3-carboxamide]"
27,9.6 nM,"CC1(O)COc2cc(N3CCC(C(C)(O)C(F)(F)F)CC3)c(NC(=O)c3cnn4cccnc34)cc2C1 (stereo not drawn) [Example 423, N-(3-hydroxy-3-methyl-7-(4-(1,1,1-trifluoro-2-hydroxypropan-2-yl)piperidin-1-yl)chroman-6-yl)pyrazolo[1,5-a]pyrimidine-3-carboxamide]"
28,3 nM,"C[C@]1(O)COc2cc(N3CCN(CC(N)=O)CC3)c(NC(=O)c3cnn4cccnc34)cc2C1 [Example 424, (R)-N-(7-(4-(2-amino-2-oxoethyl)piperazin-1-yl)-3-hydroxy-3-methylchroman-6-yl)pyrazolo[1,5-a]pyrimidine-3-carboxamide]"
29,6 nM,"C[C@@]1(O)COc2cc(N3CCN(CC(N)=O)CC3)c(NC(=O)c3cnn4cccnc34)cc2C1 [Example 425, (S)-N-(7-(4-(2-amino-2-oxoethyl)piperazin-1-yl)-3-hydroxy-3-methylchroman-6-yl)pyrazolo[1,5-a]pyrimidine-3-carboxamide]"
30,5 nM,"C[C@]1(O)COc2cc(N3CCC(C#N)CC3)c(NC(=O)c3cnn4cccnc34)cc2C1 [Example 426, (R)-N-(7-(4-cyanopiperidin-1-yl)-3-hydroxy-3-methylchroman-6-yl)pyrazolo[1,5-a]pyrimidine-3-carboxamide]"
